# Test results: patent US20140336267A1, “UTILIZATION OF THE FUNCTION OF RARE SUGAR AS PROMOTER FOR THE MIGRATION OF GLUCOKINASE FROM NUCLEUS TO CYTOPLASM” (NATIONAL UNIVERSITY CORPORATION KAGAWA UNIVERSITY, priority 2006, published 2014)
# Entries after “also recorded” stand apart in the source; their conditions may differ.
# Columns and labels:
# [1] = target: T1, glucokinase (Rattus norvegicus, UniProt P17712); assay: Intracellular transfer of hepatic glucokinase with ketose (fluorescence antibody method, rat hepatocyte primary culture); type: cell-based
# T1 construct: stained by a fluorescence antibody method using an anti-glucokinase antibody; endogenous in cells; host or cells: primary culture of hepatocytes from male Wistar rats
# T1 sequence (P17712 1-465 isoform P17712-3): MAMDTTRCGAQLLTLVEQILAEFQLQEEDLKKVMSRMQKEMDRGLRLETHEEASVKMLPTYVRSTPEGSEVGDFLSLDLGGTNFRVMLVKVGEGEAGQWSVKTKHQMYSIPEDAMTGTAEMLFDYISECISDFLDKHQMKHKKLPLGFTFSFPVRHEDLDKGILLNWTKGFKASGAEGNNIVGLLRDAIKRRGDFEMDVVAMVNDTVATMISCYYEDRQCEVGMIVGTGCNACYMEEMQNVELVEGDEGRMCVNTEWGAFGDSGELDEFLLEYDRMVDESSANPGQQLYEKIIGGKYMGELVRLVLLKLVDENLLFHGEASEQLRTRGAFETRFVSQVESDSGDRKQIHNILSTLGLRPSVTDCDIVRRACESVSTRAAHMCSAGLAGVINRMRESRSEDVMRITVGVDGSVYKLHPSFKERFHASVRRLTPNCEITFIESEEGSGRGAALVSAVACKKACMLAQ
# Experimental: Wistar rats (male, aged 5 to 8 weeks) were used. […] The hepatocytes were fixed with 4% para-formaldehyde, and stained by a fluorescence antibody method using an anti-glucokinase antibody. A fluorescent image obtained with a co-focus laser microscope was analyzed with the NIH Image to calculate the fluorescence intensity in the nucleus and the cytoplasm, which were defined as the glucokinase level in the nucleus and the cytoplasm. […] By the same method as described above, the glucokinase level in the intracellular nucleus and the cytoplasm was determined.
# [2] = test system: glucokinase; assay: Intracellular transfer of hepatic glucokinase with hormones and various compounds (rat hepatocyte primary culture); type: cell-based; conditions: 25 mM D-glucose MEM
# Experimental: Wistar rats (male, aged 5 to 8 weeks) were used. A primary culture of the rat hepatocyte was incubated for a certain period of time in a 25 mM D-glucose-containing MEM culture medium supplemented with hormones and various compounds. The hepatocytes were fixed with 4% para-formaldehyde, and stained by a fluorescence antibody method using an anti-glucokinase antibody. A fluorescent image obtained with a co-focus laser microscope was analyzed with the NIH Image to calculate the fluorescence intensity in the nucleus and the cytoplasm, which were defined as the glucokinase level in the nucleus and the cytoplasm.
# [3] = test system: primary culture of rat hepatocytes; assay: Glucose phosphorylation rate in cultured hepatocytes; type: cell-based
# Experimental: Subsequently, the primary culture was incubated at various D-fructose concentrations in the presence of 25 mM D-glucose. […] The results agreed with the results reported so far.
# [4] = test system: hepatocytes; assay: Lactic acid generation in hepatocytes; type: cell-based, rat; conditions: each D-ketose added at 0.5 mM; MEM with 15 mM glucose; DMSO control
# Experimental: […] As a control, DMSO was added.
# (§1) Cultured hepatocytes were incubated in an MEM culture medium containing 5 mM or 25 mM D-glucose with an action of promoting glucokinase transfer from nucleus to cytoplasm. Glucokinase transfer from nucleus to cytoplasm, glycogen synthesis and lactic acid generation were increased. Via glucose, glucokinase transfer from nucleus to cytoplasm occurs, which raises cytoplasmic glucokinase activity to possibly promote the sugar metabolism in liver. […] (FIGS. 4, 6, 7 and 8)
# [5] = target: T1, glucokinase; assay: Glucokinase distribution in primary hepatocytes with D-glucose and D-fructose (fluorescence antibody method); type: cell-based; conditions: 0.5 mM D-fructose present vs absent; 5 mM or 25 mM D-glucose; 37° C. 30 minutes
# Experimental: In the presence of 5 mM D-glucose, glucokinase mainly existed in the cell nucleus.
# as §1
# [6] = target: T1, glucokinase; assay: Hepatic glucokinase transfer from nucleus to cytoplasm after oral sugar alone, Wistar rats (Example 2); type: in vivo; conditions: Wistar rats starved overnight; 2 g/kg oral; 30 minutes later
# Experimental: Thirty minutes later, the rats were subjected to perfusion and fixing with 4% para-formaldehyde under anesthesia, from which liver was immediately resected to prepare frozen sections. The distribution of glucokinase in nucleus and cytoplasm was analyzed with the fluorescence antibody method using an anti-glucokinase antibody. Simultaneously, blood was drawn out from the tail vein and the portal vein, to assay blood glucose levels.
# [7] = target: T1, glucokinase; assay: Hepatic glucokinase transfer from nucleus to cytoplasm after oral sugar given with D-glucose, Wistar rats (Example 3); type: in vivo; conditions: Wistar rats; 0.2 g/kg oral simultaneously with 2 g/kg D-glucose; 30 minutes later
# Experimental: Male Wistar rats starved overnight were given 2 g/kg D-glucose orally. Simultaneously, 0.2 g/kg D-psicose, D-fructose or a mixture of D-psicose and D-fructose at 1:3 were given orally. Thirty minutes later, the rats were perfused and fixed with 4% para-formaldehyde under anesthesia, from which liver was immediately resected to prepare frozen sections. The distribution of glucokinase in the nucleus and the cytoplasm was analyzed with the fluorescence antibody method using an anti-glucokinase antibody. Simultaneously, blood was drawn out from the tail vein and the portal vein, to assay blood glucose levels.
# [8] = target: T1, glucokinase; assay: Hepatic glucokinase transfer from nucleus to cytoplasm in Goto-Kakizaki rats (type 2 diabetes model); type: in vivo
# Experimental: (§2) The action of suppressing blood glucose increase with D-fructose at a low concentration was examined. To Goto-Kakizaki rats as a model animal of type 2 diabetes mellitus, D-glucose to 2 g/[…] or D-glucose to 2 g/l kg body weight+D-fructose to 0.2 g/1 kg body weight was administered orally, to examine the modification of glucokinase transfer from the nucleus to the cytoplasm in hepatocytes and the change of the blood glucose levels in the portal vein and the tail vein.
# (§3) 2 g/kg D-glucose is orally given to male Goto-Kakizaki rats starved overnight. Simultaneously, 0.2 g/kg D-psicose was orally given. Thirty minutes later and 60 minutes later, the rats were perfused and fixed with 4% para-formaldehyde under anesthesia, from which liver was immediately resected to prepare frozen sections. The distribution of hepatic glucokinase in nucleus and cytoplasm was analyzed with the fluorescence antibody method using an anti-glucokinase antibody. Simultaneously, blood was drawn out from the tail vein and the portal vein, to assay blood glucose level and insulin concentration. Herein, liver is divided in the portal vein region and the central vein region of liver. It has been known that the activity of glucokinase in the central vein region is higher by 1.3 fold to 1.5 fold than the activity thereof in the portal vein region. Therefore, the glucokinase distributions in the nucleus and the cytoplasm in the central vein region and the portal vein region were analyzed.
# [9] = test system: Goto-Kakizaki rats; assay: Blood glucose levels in tail vein and portal vein after sugar loading, Goto-Kakizaki rats; type: in vivo, rat
# Experimental: as §2, §3
# [10] = test system: Goto-Kakizaki rats; assay: Insulin concentrations in tail vein and portal vein under sugar loading, Goto-Kakizaki rats; type: in vivo, rat; conditions: 0.2 g/kg with 2 g/kg D-glucose oral, 30 minutes and 60 minutes, vs D-glucose alone
# Experimental: as §3
# [11] = ketose added, MEM culture medium with 5 mM or 15 mM D-glucose
# [12] = 0.2 g/kg with 2 g/kg D-glucose oral, compared with D-glucose alone, portal and central vein regions
# [13] = 0.2 g/kg with 2 g/kg D-glucose oral, 30 minutes and 60 minutes, vs D-glucose alone
molecule,measurement,setting,value
O=C(CO)[C@@H](O)[C@@H](O)[C@H](O)CO [D-tagatose],glucokinase transfer from nucleus to cytoplasm,"[1]; ketose added up to 1 mM, any of the D-glucose concentrations",glucokinase transferred from nucleus to cytoplasm
same,glucokinase transfer from nucleus to cytoplasm,[1]; [11],glucokinase transferred from nucleus to cytoplasm
same,glucokinase transfer from nucleus to cytoplasm,[1]; ketose concentration 10 mM or more,no change of the glucokinase transfer was observed; also recorded: no glucokinase transfer from nucleus to cytoplasm was observed
CCCC(=O)Nc1ncnc2c1ncn2[C@@H]1O[C@@H]2COP(=O)(O)O[C@H]2[C@H]1OC(=O)CCC [Bt2cAMP],cytoplasmic glucokinase,[2]; hormone or compound alone,cytoplasmic glucokinase activity was reduced
O=C(CO)[C@H](O)[C@@H](O)[C@H](O)CO [D-sorbose],glucokinase transfer from nucleus to cytoplasm,[1]; at any of the ketose concentrations,did not influence glucokinase transfer; also recorded: hardly influenced such glucokinase transfer
O=C(CO)[C@H](O)[C@@H](O)[C@@H](O)CO [L-fructose],glucokinase transfer from nucleus to cytoplasm,"[1]; ketose added at 20 mM or more, 5 mM or 15 mM D-glucose",glucokinase transfer from nucleus to cytoplasm was gradually reduced
same,glucokinase transfer from nucleus to cytoplasm,[1]; [11],glucokinase transferred from nucleus to cytoplasm
O=C(CO)[C@@H](O)[C@@H](O)[C@@H](O)CO [L-psicose],glucokinase transfer from nucleus to cytoplasm,[1]; [11],glucokinase transferred from nucleus to cytoplasm
glucagon: hormone that transfers glucokinase from cytoplasm to nucleus,cytoplasmic glucokinase,[2]; hormone or compound alone,cytoplasmic glucokinase activity was reduced
insulin: hormone that transfers glucokinase from nucleus to cytoplasm,cytoplasmic glucokinase,[2]; hormone or compound alone,increase of cytoplasmic glucokinase
O=C(CO)[C@@H](O)[C@H](O)[C@H](O)CO [D-fructose],glucokinase transfer from nucleus to cytoplasm,"[1]; ketose added at 1 mM or more, 5 mM or 15 mM D-glucose",glucokinase transfer from nucleus to cytoplasm was gradually reduced
same,glucokinase transfer from nucleus to cytoplasm,[1]; [11],glucokinase transferred from nucleus to cytoplasm
same,glucose phosphorylation,"[3]; 0.5 mM D-fructose present vs absent, various glucose concentrations",enhanced glucose phosphorylation in the hepatocytes
same,glucose phosphorylation,"[3]; above 0.5 mM D-fructose, 25 mM D-glucose",glucose phosphorylation was reduced
same,glucose phosphorylation,"[3]; up to 0.5 mM D-fructose, 25 mM D-glucose",glucose phosphorylation was enhanced as the D-fructose concentration was raised
same,lactic acid generation,[4],lactic acid generation was increased
same,glucokinase transfer from the nucleus to the cytoplasm,[5],the glucokinase transfer from the nucleus to the cytoplasm increased
same,glucokinase transfer from the nucleus to the cytoplasm in hepatocytes,[6],a higher level of the transfer was observed than with D-psicose
same,glucokinase transfer from the nucleus to the cytoplasm in hepatocytes,[7],glucokinase was mostly transferred to the cytoplasm
same,glucokinase transfer from the nucleus to the cytoplasm in hepatocytes,"[8]; D-glucose 2 g/kg + D-fructose 0.2 g/kg oral, compared with D-glucose alone",significantly increased
same,blood glucose level in the portal vein,[9]; additional supplement of D-fructose compared with D-glucose alone,suppressed significantly
same,blood glucose level in the portal vein,[9]; effect of D-fructose loading added to D-glucose,No difference was observed
O=C(CO)[C@H](O)[C@H](O)[C@H](O)CO [D-psicose],glucokinase transfer from nucleus to cytoplasm,[1]; even at a high ketose concentration,exerted an action to promote glucokinase transfer from nucleus to cytoplasm
same,glucokinase transfer from nucleus to cytoplasm,[1]; [11],glucokinase transferred from nucleus to cytoplasm
same,lactic acid generation,[4],lactic acid generation was increased
same,glucokinase transfer from the nucleus to the cytoplasm in hepatocytes,[6],glucokinase transfer from the nucleus to the cytoplasm could be observed
same,glucokinase transfer from the nucleus to the cytoplasm in hepatocytes,[7],glucokinase was transferred to the cytoplasm apparently but more weakly than with D-fructose
same,cytoplasmic glucokinase fluorescence (liver),[8]; [12],increased the cytoplasmic fluorescence
same,nuclear glucokinase fluorescence (liver),[8]; [12],significantly reduced the nuclear fluorescence
same,cytoplasmic glucokinase level (fluorescence intensity analysis),"[8]; simultaneous administration with D-glucose vs D-glucose alone, central vein and portal vein regions",further increased the cytoplasmic glucokinase level
same,glucose concentration in the portal vein,[9]; [13],significantly lower values
same,glucose concentration in the tail vein,[9]; [13],significantly lower values
same,insulin concentration in the portal vein,[10],significantly lower values
same,insulin concentration in the tail vein,[10],significantly lower values
O=C(CO)[C@H](O)[C@H](O)[C@@H](O)CO [L-tagatose],glucokinase transfer from nucleus to cytoplasm,[1]; [11],never influenced the glucokinase transfer
COc1cccc(-c2cc(=O)c3ccccc3o2)c1N [PD-98059],cytoplasmic glucokinase,[2]; compound in the presence of insulin,such change could not be observed
O=C(CO)[C@@H](O)[C@H](O)[C@@H](O)CO [L-sorbose],glucokinase transfer from nucleus to cytoplasm,[1]; [11],glucokinase transferred from nucleus to cytoplasm as the L-sorbose concentration was raised
CC(C)Cn1c(=O)n(C)c(=O)c2[nH]cnc21 [IBMX],cytoplasmic glucokinase,[2]; hormone or compound alone,cytoplasmic glucokinase activity was reduced
CCCCCCOC(=O)[C@]1(O)C[C@@H]2O[C@@]1(C)n1c3ccccc3c3c4c(c5c6ccccc6n2c5c31)C(=O)NC4 [KT-5720],cytoplasmic glucokinase,[2]; compound in the presence of glucagon,Almost no reduction of cytoplasmic glucokinase with glucagon was observed any more
